Reference: patent US9227921B2, “Salts and polymorphs of a tetracycline compound” (Paratek Pharmaceuticals, Inc., priority 2008, dated 2016)

Experiment: Temperature and moisture stability study (HPLC impurity profile)
Format: physicochemical
Protocol: A stability study was conducted on tosylate salt and mesylate salt of Compound 1, by monitoring changes in the high performance liquid chromatography (HPLC) impurity profiles for each salt when exposed to various temperatures and/or humidity conditions. Each sample was placed in a closed container and exposed to three controlled environments: refrigerated (5° C.), 20° C. and 60% relative humidity, and 40° C. and 75% relative humidity. […] The stability study of the crystalline tosylate salt was continued.
Samples were analyzed by the following reversed-phase HPLC impurity profile method at time points 0, 1, 2, 4 weeks (Table 7) and 3 months (Table 8) for the tosylate salt; and 0, 1 and 2 weeks for the mesylate salt (Table 9).
Reversed-phase HPLC analysis was conducted using a SYMMETRY SHIELD RP18 column (4.6×250 mm, 5 µm particle size), although analysis using a similar or equivalent column would be expected to yield similar results. The mobile phase components were 0.01 M ammonium acetate in water at pH 3.3 (A) and acetonitrile (B). The mobile phase composition was a gradient that increased from 6% to 15% B in five minutes, held at 15% B for 15 minutes, increased from 15% to 60% B in ten minutes, then from 60% to 90% B in two minutes, and then the system was re-equilibrated at 6% B for four minutes. The flow rate was 1.0 mL/minute, and the injection volume was 10.0 μL. The column temperature was maintained at 30° C. Detection was by ultraviolet light (UV) at 280 nm. The retention time for Compound 1 was approximately 15.7 minutes. The sample solution was prepared in mobile phase A to a final concentration of 2.0 mg/mL.

Compound 1 (1 week, 5° C.): 98.2% | RRT 1.19 (1 week, 5° C.): 0.17% | RRT 1.26 (beta-epimer) (1 week, 5° C.): 1.6% | RRT 1.77 (1 week, 5° C.): 0.08% | Total Impurities (1 week, 5° C.): 1.85% | Compound 1 (1 week, 20° C. & 60% RH): 98.0% | RRT 1.19 (1 week, 20° C. & 60% RH): 0.17% | RRT 1.26 (beta-epimer) (1 week, 20° C. & 60% RH): 1.8% | RRT 1.77 (1 week, 20° C. & 60% RH): 0.09% | Total Impurities (1 week, 20° C. & 60% RH): 2.06% | Compound 1 (1 week, 40° C. & 75% RH): 97.1% | RRT 0.52 (1 week, 40° C. & 75% RH): 0.07% | RRT 0.77 (1 week, 40° C. & 75% RH): 0.05% | RRT 1.19 (1 week, 40° C. & 75% RH): 0.16% | RRT 1.26 (beta-epimer) (1 week, 40° C. & 75% RH): 2.6% | RRT 1.77 (1 week, 40° C. & 75% RH): 0.09% | Total Impurities (1 week, 40° C. & 75% RH): 2.97% | Compound 1 (2 weeks, 5° C.): 98.3% | RRT 0.93 (2 weeks, 5° C.): 0.06% | RRT 1.19 (2 weeks, 5° C.): 0.20% | RRT 1.26 (beta-epimer) (2 weeks, 5° C.): 1.3% | RRT 1.77 (2 weeks, 5° C.): 0.09% | Total Impurities (2 weeks, 5° C.): 1.65% | Compound 1 (2 weeks, 20° C. & 60% RH): 98.1% | RRT 0.93 (2 weeks, 20° C. & 60% RH): 0.06% | RRT 1.19 (2 weeks, 20° C. & 60% RH): 0.20% | RRT 1.26 (beta-epimer) (2 weeks, 20° C. & 60% RH): 0.11% | RRT 1.77 (2 weeks, 20° C. & 60% RH): 0.11% | Total Impurities (2 weeks, 20° C. & 60% RH): 1.87% | Compound 1 (2 weeks, 40° C. & 75% RH): 96.6% | RRT 0.52 (2 weeks, 40° C. & 75% RH): 0.05% | RRT 0.77 (2 weeks, 40° C. & 75% RH): 0.07% | RRT 0.93 (2 weeks, 40° C. & 75% RH): 0.06% | RRT 1.19 (2 weeks, 40° C. & 75% RH): 0.19% | RRT 1.26 (beta-epimer) (2 weeks, 40° C. & 75% RH): 0.11% | RRT 1.77 (2 weeks, 40° C. & 75% RH): 0.11% | Total Impurities (2 weeks, 40° C. & 75% RH): 3.38% | stability (5° C.): unstable | Compound 1 (Initial): 98.3% | RRT 1.19 (Initial): 0.20% | RRT 1.26 (beta-epimer) (Initial): 1.5% | Total Impurities (Initial): 1.70%
Compound: CN(C)c1cc(CNCC(C)(C)C)c(O)c2c1CC1CC3C(N(C)C)C(O)=C(C(N)=O)C(=O)C3(O)C(O)=C1C2=O.CS(=O)(=O)O (stereo not drawn) [mesylate salt of Compound 1]
